This note sets out measurements from PubChem BioAssay AID1996.

Values after ≈ are worked out from the molar mass of the structure shown.

For this series the following is noted: buffer; pH 7.4; 200.0 µM.
For the compound `S=C(Nc1cccnc1)N1CCCCC1`, the solubility (kinetic) – broadly, the concentration staying in solution when a stock, usually in DMSO, is diluted into the medium – is more than 33.2 µg/mL.

With `COc1ccccc1NC(=S)NC(=O)Cc1ccccc1`, the kinetic solubility was found to be 0.5 µg/mL (≈ 1.66 µM).

`N#C/C(=C\c1ccccn1)c1ccccn1` returned a kinetic solubility of more than 31.1 µg/mL.

The compound `CCOC(=O)c1ccc(NC(=S)N2CCN(c3ccccn3)CC2)cc1` had a solubility (kinetic) of 1.2 µg/mL (≈ 3.24 µM).

In turn, `O=C(C[n+]1cccc(O)c1)NCc1ccc(Cl)cc1.[Cl-]` registered a solubility (kinetic) of more than 47 µg/mL.

The compound `Cc1cccc(Nc2ccncc2S(=O)(=O)NC(=O)NC(C)C)c1` returned a kinetic solubility of more than 52.3 µg/mL.

The compound `CCOC(=O)c1sc(Nc2nc(C)cc(C)n2)nc1C` came in with a solubility (kinetic) of 1.2 µg/mL (≈ 4.1 µM).

`Fc1ccc(OCCn2cnc(Cl)c2Cl)cc1` gave a kinetic solubility of 29.7 µg/mL (≈ 108 µM).

For `CCN(Cc1nc(-c2ccc(Cl)cc2)no1)CC1CCCO1` (stereo not drawn), the kinetic solubility came to 25.8 µg/mL (≈ 80.2 µM).

Compound `Cc1[nH]c(=O)[nH]c(=O)c1S(=O)(=O)Nc1ccc(F)cc1Cl` had a kinetic solubility of more than 50.1 µg/mL.

On to `O=Cc1cc([N+](=O)[O-])ccc1N1CCN(Cc2ccc3c(c2)OCO3)CC1`, for which the kinetic solubility turned out to be 12.2 µg/mL (≈ 33 µM).

With `Cc1cc(NC(=O)c2ccc(Cl)cc2Cl)no1`, the kinetic solubility worked out at 3.5 µg/mL (≈ 12.9 µM).

In turn, `COc1ccc2cc(C(=O)N3CCN(c4cccc(C)c4C)CC3)[nH]c2c1` showed a kinetic solubility of 1.2 µg/mL (≈ 3.3 µM).

Regarding `CCc1ccc(C(=O)NC(CCSC)C(=O)OC)cc1` (stereo not drawn), the solubility (kinetic) is more than 44.3 µg/mL.

`c1ccc(-c2cccc(-c3ccccc3)n2)cc1` registered a solubility (kinetic) of less than 0.5 µg/mL.

Compound `Cc1cccc(-c2noc(CN(C)C(=O)c3ccoc3C)n2)c1` returned a solubility (kinetic) of 40.9 µg/mL (≈ 131 µM).

In turn, `O=S(=O)(NC1=NCCCCC1)c1cc(F)ccc1F` gave a kinetic solubility of more than 43.2 µg/mL.

Consider `O=[N+]([O-])c1[nH]cnc1/C=C/c1ccccc1`, for which the solubility (kinetic) worked out at 1.8 µg/mL (≈ 8.36 µM).

As to `Cc1ccccc1NC(=O)CCN1CCCC1.Cl`, the solubility (kinetic) is more than 40.3 µg/mL.

Compound `CCOc1ccc(N2C(=O)NC(=O)/C(=C\c3ccccc3[N+](=O)[O-])C2=O)cc1` yielded a solubility (kinetic) of more than 57.2 µg/mL.

In turn, `C=CCn1c(COc2ccccc2)nc2ccccc21` showed a solubility (kinetic) of 31.9 µg/mL (≈ 121 µM).

`Cc1nc(N2CCC(C(N)=O)CC2)c2c(-c3cccs3)csc2n1` yielded a solubility (kinetic) of more than 53.8 µg/mL.

In turn, `Cn1c(=O)c2c(ncn2CCOc2ccc(F)cc2)n(C)c1=O` registered a solubility (kinetic) of 13.9 µg/mL (≈ 43.7 µM).

As for `O=S(=O)(Nc1ccon1)c1ccc(F)c(F)c1`, the solubility (kinetic) is 25.9 µg/mL (≈ 99.5 µM).

`Fc1ccc(C2CC(c3ccco3)=Nc3ccccc3S2)cc1` (stereo not drawn) gave a kinetic solubility of less than 0.7 µg/mL.

As for `CC(C)(C)NC(=O)C(OC(=O)c1ccco1)c1ccccc1F` (stereo not drawn), the solubility (kinetic) was more than 47.9 µg/mL.

In turn, `COc1ccccc1OCCC(=O)OCC(=O)NCc1ccc(F)cc1` came in with a kinetic solubility of 23.5 µg/mL (≈ 65 µM).

On to `Cc1noc(C)c1-c1nc(CSc2ccccc2)no1`, for which the solubility (kinetic) was 0.8 µg/mL (≈ 2.78 µM).

`NC(=O)Nc1ccc(C(=O)OCC(=O)c2c[nH]c3ccccc23)cc1` registered a solubility (kinetic) of 4.2 µg/mL (≈ 12.5 µM).

Take `COC(=O)c1c(C(=O)OC)c2n(c1C)CCS2`: the kinetic solubility was more than 38.3 µg/mL.

For `Cc1cccc(CC(=O)NC2CCCCCC2)c1`, the kinetic solubility was 30.5 µg/mL (≈ 124 µM).

Regarding `CC(C)C(NC(=O)C1CCCCC1)C(=O)NCCc1ccccc1` (stereo not drawn), the solubility (kinetic) amounted to 1.3 µg/mL (≈ 3.93 µM).

Compound `CC1CCCCN1C(=O)CSc1nnc2ccccn12` (stereo not drawn) had a solubility (kinetic) of more than 43.6 µg/mL.

The compound `COc1ccc(C(=O)Nc2ccc(NC(=O)Cc3ccccc3)cn2)cc1` had a solubility (kinetic) of 0.4 µg/mL (≈ 1.11 µM).

As for `Cc1ccc(CNC(=O)C2CCCN(c3nc(C)cc(C)n3)C2)cc1` (stereo not drawn), the kinetic solubility turned out to be 0.6 µg/mL (≈ 1.77 µM).

For `CC(C)N(C(=O)COC(=O)c1ccc([N+](=O)[O-])cc1)c1ccccc1`, the solubility (kinetic) came to 1.1 µg/mL (≈ 3.21 µM).

On to `Cc1noc(COc2ccccc2OCC(N)=O)n1`, for which the kinetic solubility is more than 39.5 µg/mL.

`O=C(NCc1ccccc1)c1ccc(NC(=O)c2ccco2)cc1` registered a solubility (kinetic) of 2 µg/mL (≈ 6.24 µM).

Compound `COc1ccc(C(=O)Nc2nccs2)cc1` had a kinetic solubility of 8.1 µg/mL (≈ 34.6 µM).

`Cn1c(-c2ccc(Cl)nc2)nc2ccccc21` returned a kinetic solubility of more than 36.6 µg/mL.

For the compound `CCOC(=O)c1c(O)c2ccccc2n(CC)c1=O`, the kinetic solubility is more than 39.2 µg/mL.

The compound `CCC(=O)c1ccc(N2CCN(C(=O)c3ccc(F)cc3)CC2)c(F)c1` came in with a solubility (kinetic) of more than 53.8 µg/mL.

Turning to `CN(c1ncnc(N)c1[N+](=O)[O-])C1CCCCC1`, the solubility (kinetic) is more than 37.7 µg/mL.

Turning to `Cc1noc(/C=C/c2ccccn2)c1[N+](=O)[O-]`, the kinetic solubility amounted to 19.3 µg/mL (≈ 83.5 µM).

As for `Cc1ccc(-n2sc3ccccc3c2=O)cc1`, the kinetic solubility is 9.2 µg/mL (≈ 38.1 µM).

Regarding `Cn1c(S(=O)(=O)Cc2ccc(Cl)cc2)nc2ccccc21`, the solubility (kinetic) came to 8.7 µg/mL (≈ 27.1 µM).

On to `Nc1cc2nc3ccccc3nc2cc1N`, for which the solubility (kinetic) was 5.1 µg/mL (≈ 24.3 µM).

Turning to `COc1cccc(C(=O)NC2CC(C)(C)NC(C)(C)C2)c1OC`, the solubility (kinetic) was more than 48.1 µg/mL.

As for `O=C(/C=C/c1ccc(O)c(O)c1)NC(=O)c1ccccc1O`, the solubility (kinetic) is more than 44.9 µg/mL.

The compound `COc1cccc2c1O/C(=N\O)C(C(=O)Nc1ccc(C)cc1)C2` (stereo not drawn) came in with a kinetic solubility of 45.7 µg/mL (≈ 140 µM).

For the compound `CC1CC(=O)N(C)c2cc([N+](=O)[O-])ccc2N1` (stereo not drawn), the kinetic solubility is more than 35.3 µg/mL.

With `O=C(CN1CCCC1c1cccs1)Nc1cc(S(=O)(=O)N2CCCC2)ccc1Cl` (stereo not drawn), the solubility (kinetic) was determined as 1.6 µg/mL (≈ 3.52 µM).

In the case of `COc1cc(OC)c(C(=O)Nc2ccc(C(=O)c3ccccc3)cc2)cc1OC`, the solubility (kinetic) is 3.4 µg/mL (≈ 8.69 µM).
